From US20080050413A1, “Medical stent provided with a combination of melatonin and paclitaxel” (priority 2006, published 2008)
Several values for one entry are separate records, joined by “and”; a condition that tells them apart may be missing. Equal values may be shown once.

Key:
[1] = tested on: human coronary artery smooth muscle cells (HCASMC); test: CellTiter 96 One solution (MTS) cell proliferation assay, HCASMC; assay type: cell-based
Experimental: (§1) Human coronary artery endothelial cells (HCAEC) were purchased from Cambrex and human coronary artery smooth muscle cells (HCASMC) were purchased from Promocell. Cells were used for experiments between passage 4 and passage 12. Both cell types were cultured in their respective complete culture medium with the following composition: HCASMC: Smooth Muscle Cell Growth Medium 2: Epidermal Growth Factor (EGF), basic Fibroblast Factor (FGF), Insulin, Fetal Calf Serum (FCS) 5%, Amphotericin B, Gentamicin. Medium was changed every other day. 24 hours prior to growth factor stimulation, the medium was replaced by fresh culture medium, however, without growth factors to increase the cellular sensitivity to the subsequent growth factor stimulation. Subconfluent HCAEC were stimulated with 10 ng/ml of VEGF-A, whereas subconfluent HCASMC were stimulated with 10 ng/ml of PDGF-BB. Likewise, both cell types were stimulated with 25% of human serum (final concentration). All proliferation and cytotoxicity experiments were performed on cells cultured on 96 well plates (Costar). The CellTiter 96 One solution cell proliferation assay from Promega was used to assess cell proliferation in a 96-well plate. This assay makes use of the MTS tetrazolium compound as a cellular substrate. MTS is bioreduced by living cells into a colored formazan product that is soluble in tissue culture medium and absorbs light at 490 nm. The quantity of formazan produced is directly proportional to the number of living cells in culture. After 24 h stimulation, 20 μl of MTS reagent was added to the cells cultured in 100 μl of medium per well. After 2 to 4 hours of incubation at 37° C., 5% CO2, the absorbance at 490 nm was recorded using a 96-well plate reader (Tecan).

[2] = tested on: human coronary artery endothelial cells (HCAEC); test: CellTiter 96 One solution (MTS) cell proliferation assay, HCAEC; assay type: cell-based
Experimental: as §1, with “HCAEC: Endothelial” for “HCASMC: Smooth Muscle Cell”, “Media-2 MV: hEGF, Hydrocortisone, GA-1000, FBS” for “Medium 2: Epidermal Growth Factor (EGF), basic Fibroblast Factor (FGF), Insulin, Fetal Calf Serum (FCS)”, “VEGF, hFGF-B, R3-IGF-1, Ascorbic Acid” for “Amphotericin B, Gentamicin.”

HCAEC [3] = test: CytoTox-ONE LDH release cytotoxicity assay, HCAEC; assay type: cell-based, human; conditions: 48 hours, Melatonin 0.2 to 6 mM
Experimental: (§2) Cytotoxicity experiments were performed with cells cultured on 96-well plates. The CytoTox-ONE™ Assay from Promega was used to assess the membrane integrity of cells. This test is based on a fluorometric method to estimate the number of non viable cells present in multiwell plates by measuring the release of lactate dehydrogenase (LDH) from cells with damaged membranes. Subconfluent cells were incubated for 48 hours with Melatonin at concentrations between 0.2 and 6 mM. During the 48 h Melatonin incubation, the medium was not changed to avoid removal of any detached cells. As a positive control three wells of untreated cells were incubated with lysis buffer (delivered with the assay) before measurement. At the end of the Melatonin incubation period, a volume of CytoTox-ONE reagent equal to the volume of cell culture medium present in each well was added. After 10 min incubation at 22° C. (room temperature), 50 μl of stop solution was added per 100 μl of CytoTox-ONE reagent added. The plate was shaken for 10 seconds and fluorescence was recorded with an excitation wavelength of 560 nm and an emission wavelength of 590 nm (Spectramax M2 fluorescence plate reader, Molecular devices).

HCASMC = test: CytoTox-ONE LDH release cytotoxicity assay, HCASMC; assay type: cell-based, human; conditions: 48 hours, Melatonin 0.2 to 6 mM
Experimental: as §2

[4] = tested on: HUVEC (Human Umbilical Vein Endothelial Cells); test: [3H]-thymidine incorporation, HUVEC stimulated with VEGF-A; assay type: cell-based; conditions: VEGF A 10 ng/ml 24 hours
Experimental: To investigate, whether melatonin has similar effects on other cell types, HUVEC (Human Umbilical Vein Endothelial Cells, Promocell) were tested. HUVEC were cultured in the corresponding complete medium (Endothelial Cell Growth Medium: ECGS/H 0.4%, Fetal Calf Serum 2%, Epidermal Growth Factor 0.1 ng/ml, Hydrocortisone 1 μg/ml, basic Fibroblast Factor 1 ng/ml, Amphotericin B 50 ng/ml, Gentamicin 50 μg/ml). 24 hours prior to stimulation, the medium was replaced by a medium containing 2% serum and antibiotics, but devoid of the other complements. Then, HUVEC were stimulated with 10 ng/ml of VEGF-A for 24 hours. HUVEC were incubated for 48 hours with Melatonin and stimulated for 24 hours with VEGF-A at 10 ng/ml. After 24 hours of stimulation, the cells were incubated with radioactive [^3H]-thymidine. Two hour later, the medium was removed and cell-bound DNA was precipitated using 5% TCA (Trichloroacetic acid). Then, [^3H]-thymidine incorporation was measured using a beta-counter.

HCAEC [5] = test: Chemotaxis towards VEGF-A, modified Boyden chamber, HCAEC; assay type: cell-based, human; conditions: 2 mM Melatonin for 48 hours; VEGF-A 10 ng/ml; migration 4 hours; performed only once
Experimental: Chemotaxis experiments were performed using a modified Boyden chamber. The apparatus consists of two multi-well chambers separated by a filter containing pores of uniform size. A solution containing a chemokine or chemotactic factor is placed in the lower/bottom chamber and a cell suspension is placed in the upper chamber. Cells can migrate through the pores across the filter and towards the chemoattractant in the lower chamber. Cells that migrated across the filter and remain attached to the lower side of the membrane are counted. Data are expressed in terms of migration index: the number of cells that migrated in response to agonist stimulation compared to the number of cells that migrated randomly, i.e. to medium only. Chemotaxis experiments so far were only performed with HCAEC. For these cells a 25×80 mm polycarbonate filter, […] (PVP) free was used (Whatman) with a pore size of […]. Before migration the filter was coated with collagen. Endothelial cells were incubated with Melatonin at 2 mM prior to and during migration. […] Cells were stimulated with VEGF-A at 10 ng/ml. Cells were allowed to migrate for 4 hours at 37° C./5% CO2. At the end of migration, cells were fixed on the filter, stained with Giemsa and counted using a regular optic microscope.

COc1ccc2[nH]cc(CCNC(C)=O)c2c1 [Melatonin, N-acetyl-5-methoxytryptamine]
effect on number of smooth muscle cells ([1]; 1 mM Melatonin, 24 hours pre-treatment, PDGF BB 10 ng/ml 24 h): significant decrease in the number of smooth muscle cells
concentration at which proliferation is strongly inhibited ([1]; HCASMC): higher than 0.2 mM
effect on proliferation of HCASMC ([1]; Melatonin up to 0.1 mM, PDGF BB 10 ng/ml 24 h): no significant effect
concentration of maximal inhibitory effect ([1]; tested up to 10 mM): 5 mM
concentration at which proliferation is strongly inhibited ([2]; HCAEC): higher than 0.2 mM
effect on cell number ([2]; Melatonin between 1 mM and 6 mM): dramatic decrease in cell number
concentration of maximal effect ([2]; tested 1 μM to 6 mM): 3 mM and 6 mM
sensitivity of HCAEC to Melatonin ([2]; up to 0.1 mM Melatonin): not sensitive
cytotoxic effect (LDH release) (HCAEC [3]): does not induce any detectable cytotoxic effect
cytotoxic effect (LDH release) (HCASMC): does not induce any detectable cytotoxic effect
effect on HUVEC ([3H]-thymidine incorporation) ([4]; 0.2 mM Melatonin, 48 hours): inhibitory effect
VEGF-A induced [3H]-thymidine incorporation ([4]; Melatonin 48 hours): completely inhibited
effect on chemotactic response towards VEGF-A (HCAEC [5]): did not have any significant effect
